From patent publication US9512075B2 (OKAYAMA UNIVERSITY, priority 2012, dated 2016)
Values after ≈ are worked out from the molar mass of the structure shown. Where two headings read alike, the source gives them in different places.

What was measured:
Assay type in all cases: cell-based
[1] = tested on: Staphylococcus aureus Smith strain; experiment: MIC for Staphylococcus aureus Smith strain; settings: read-out: MIC Straphyrococcus aureus Smith
[2] = tested on: Staphylococcus aureus 209P strain; experiment: MIC for Staphylococcus aureus 209P strain; settings: for MIC: Staphylococcus aureus, read-out: MIC Straphyrococcus aureus 209P
[3] = tested on: Staphylococcus aureus MRSA No. 17 (methicillin-resistant Staphylococcus aureus: MRSA); experiment: MIC for Staphylococcus aureus MRSA No. 17; settings: read-out: MIC Straphyrococcus aureus MRSA No. 17 (MRSA)
[4] = tested on: Enterococcus faecalis 5038 strain; experiment: MIC for Enterococcus faecalis 5038 strain; settings: read-out: MIC Enterococcus faecalis 5038
[5] = tested on: Enterococcus faecalis NCTC12201 strain (vancomycin-resistant Enterococcus: VRE); experiment: MIC for Enterococcus faecalis NCTC12201 strain (VRE); settings: read-out: MIC Enterococcus faecalis NCTC 12201 (VRE)
[6] = tested on: Clostridium difficile JCM1296 strain; experiment: microbe, parasite or virus in culture; settings: for MIC: Clostridioides difficile, JCM1296, read-out: MIC Clostridium difficile JCM1296
[7] = tested on: Clostridium perfringens PB6K strain; experiment: microbe, parasite or virus in culture; settings: CD medium, 37° C. overnight, 10% CO2-containing anaerobic conditions; for MIC: Clostridium perfringens, PB6KSTRAIN, read-out: MIC Clostridium perfringens PB6K, PB6K strain
[8] = tested on: Escherichia coli K-12 strain; experiment: MIC for Escherichia coli K-12 strain; settings: for MIC: Escherichia coli, K12STRAIN, read-out: MIC Escherichia coli K12
[9] = tested on: Escherichia coli BE1121 strain; experiment: MIC for Escherichia coli BE1121 strain; settings: for MIC: Escherichia coli, BE1121STRAIN, read-out: MIC Escherichia coli BE1121
[10] = Smith strain, regular bouillon medium, 37° C. overnight, turbidity
[11] = 209P strain, regular bouillon medium, 37° C. overnight, turbidity
[12] = MRSA No. 17, regular bouillon medium, 37° C. overnight, turbidity
[13] = 5038 strain, Heart Infusion Broth medium, 37° C. overnight, turbidity
[14] = NCTC12201 strain (VRE), Heart Infusion Broth medium, 37° C. overnight, turbidity
[15] = K-12 strain, regular bouillon medium, 37° C. overnight, turbidity
[16] = BE1121 strain, regular bouillon medium, 37° C. overnight, turbidity

SMILES	MIC [1, 10] [µg/mL]	MIC [2, 11] [µg/mL]	MIC [3, 12] [µg/mL]	MIC [4, 13] [µg/mL]	MIC [5, 14] [µg/mL]	MIC [6] [µg/mL]	MIC [7] [µg/mL]	MIC [8, 15] [µg/mL]	MIC [9, 16] [µg/mL]	further results
CC(C)[C@H]1CC[C@H](C)CC1OCC(=O)c1c(O)c2ccccc2oc1=O (stereo in doubt) [B006, 4-hydroxy-3-menthyloxyacetylcoumarin]	1 (≈ 2.79 µM)	1 (≈ 2.79 µM)	2 (≈ 5.58 µM)	2 (≈ 5.58 µM)	2 (≈ 5.58 µM)	2 (≈ 5.58 µM)	1 (≈ 2.79 µM)	128 (≈ 357 µM)	2 (≈ 5.58 µM)	–
CCCCCCCCCC(O)=C1C(=O)Nc2ccccc21 [A001, 3-decanoyl-2-oxyindole]	32 (≈ 111 µM)	16 (≈ 55.7 µM)	32 (≈ 111 µM)	16 (≈ 55.7 µM)	16 (≈ 55.7 µM)	–	–	256 (≈ 891 µM)	256 (≈ 891 µM)	–
CCCCCCCCCC(O)=C1C(=O)Nc2cc(Cl)ccc21 [A002, 3-decanoyl-6-chloro-2-oxyindole]	16 (≈ 49.7 µM)	–	16 (≈ 49.7 µM)	16 (≈ 49.7 µM)	15 (≈ 46.6 µM)	32 (≈ 99.4 µM)	32 (≈ 99.4 µM)	–	–	MIC ([2]; 209P): 16 µg/mL (≈ 49.7 µM); MIC [8]: 128 µg/mL (≈ 398 µM); MIC [9]: 128 µg/mL (≈ 398 µM)
CCCCCCCCCC(O)=C1C(=O)N(C(=O)OC(C)(C)C)c2cc(Cl)ccc21 [A003, N-Boc-3-decanoyl-6-chloro-2-oxyindole]	256 (≈ 607 µM)	256 (≈ 607 µM)	256 (≈ 607 µM)	128 (≈ 303 µM)	128 (≈ 303 µM)	0.5 (≈ 1.18 µM)	1 (≈ 2.37 µM)	256 (≈ 607 µM)	128 (≈ 303 µM)	–
CCCCCCCCCC(O)=C1C(=O)Nc2ccc(F)cc21 [A004, 3-decanoyl-5-fluoro-2-oxyindole]	16 (≈ 52.4 µM)	–	32 (≈ 105 µM)	16 (≈ 52.4 µM)	15 (≈ 49.1 µM)	2 (≈ 6.55 µM)	8 (≈ 26.2 µM)	–	–	MIC ([2]; 209P): 16 µg/mL (≈ 52.4 µM); MIC [8]: 128 µg/mL (≈ 419 µM); MIC [9]: 128 µg/mL (≈ 419 µM)
CCCCCCCCCC(=O)N1C(=O)C(=C(O)CCCCCCCCC)c2ccccc21 [A005, 1,3-didecanoyl-2-oxyindole]	64 (≈ 145 µM)	32 (≈ 72.5 µM)	32 (≈ 72.5 µM)	32 (≈ 72.5 µM)	32 (≈ 72.5 µM)	2 (≈ 4.53 µM)	16 (≈ 36.2 µM)	128 (≈ 290 µM)	128 (≈ 290 µM)	–
CCCCCCCCCC(O)=C1C(=O)N(C)c2ccccc21 [A007, N-methyl-3-decanoyl-2-oxyindole]	8 (≈ 26.5 µM)	–	128 (≈ 425 µM)	32 (≈ 106 µM)	15 (≈ 49.8 µM)	2 (≈ 6.64 µM)	8 (≈ 26.5 µM)	–	–	MIC ([2]; 209P): 32 µg/mL (≈ 106 µM); MIC [8]: 256 µg/mL (≈ 849 µM); MIC [9]: 256 µg/mL (≈ 849 µM)
CCCCC1CCC(C(O)=C2C(=O)N(C(=O)OC(C)(C)C)c3ccccc32)CC1 (stereo not drawn) [A008, N-Boc-3-(4-butylcyclohexylcarbonyl)-2-oxyindole]	128 (≈ 320 µM)	64 (≈ 160 µM)	256 (≈ 641 µM)	128 (≈ 320 µM)	128 (≈ 320 µM)	1 (≈ 2.5 µM)	2 (≈ 5.01 µM)	128 (≈ 320 µM)	128 (≈ 320 µM)	–
CCCCC1CCC(C(O)=C2C(=O)N(C(=O)OC(C)(C)C)c3cc(Cl)ccc32)CC1 (stereo not drawn) [A009, N-Boc-3-(4-butylcyclohexylcarbonyl)-6-chloro-2-oxyindole]	32 (≈ 73.7 µM)	128 (≈ 295 µM)	256 (≈ 590 µM)	4 (≈ 9.22 µM)	4 (≈ 9.22 µM)	0.5 (≈ 1.15 µM)	1 (≈ 2.3 µM)	128 (≈ 295 µM)	128 (≈ 295 µM)	–
CCCCC1CCC(C(O)=C2C(=O)N(C(C)=O)c3ccccc32)CC1 (stereo not drawn) [A010, N-acetyl-3-(4-butylcyclohexylcarbonyl)-2-oxyindole]	0.5 (≈ 1.46 µM)	2 (≈ 5.86 µM)	1 (≈ 2.93 µM)	0.5 (≈ 1.46 µM)	0.5 (≈ 1.46 µM)	0.25 (≈ 0.732 µM)	1 (≈ 2.93 µM)	256 (≈ 750 µM)	256 (≈ 750 µM)	–
CCCCCCCCCC(=O)NCC(O)=C1C(=O)N(C(=O)OC(C)(C)C)c2ccccc21 [A011, N-Boc-3-decanoylaminoacetyl-2-oxyindole]	128 (≈ 288 µM)	256 (≈ 576 µM)	256 (≈ 576 µM)	256 (≈ 576 µM)	256 (≈ 576 µM)	2 (≈ 4.5 µM)	2 (≈ 4.5 µM)	128 (≈ 288 µM)	128 (≈ 288 µM)	–
CCCCCCCCCCOCC(O)=C1C(=O)N(C(=O)OC(C)(C)C)c2cc(Cl)ccc21 [A056, N-Boc-6-chloro-3-decyloxyacetyl-2-oxyindole]	–	–	–	–	–	–	–	–	–	MIC Straphyrococcus aureus 209P [2, 11]: 256 µg/mL (≈ 549 µM); MIC Clostridium difficile JCM1296 [6]: 4 µg/mL (≈ 8.58 µM); MIC Clostridium perfringens PB6K ([7]; PB6K strain): 0.5 µg/mL (≈ 1.07 µM); MIC Escherichia coli K12 [8, 15]: 256 µg/mL (≈ 549 µM); MIC Escherichia coli BE1121 [9, 16]: 256 µg/mL (≈ 549 µM)
CCCCCCCCCC(=O)N1C(=O)C(=C(O)c2ccc(F)cc2)c2ccccc21 [A061, N-decanoyl-3-(4-fluorobenzoyl)-2-oxyindole]	–	–	–	–	–	–	2 (≈ 4.88 µM)	–	–	MIC [1]: 2 µg/mL (≈ 4.88 µM); MIC ([2]; 209P): 128 µg/mL (≈ 313 µM); MIC ([3]; MRSA): 64 µg/mL (≈ 156 µM); MIC ([4]; 5038STRAIN): 4 µg/mL (≈ 9.77 µM); MIC [5]: 4 µg/mL (≈ 9.77 µM); MIC [8]: 128 µg/mL (≈ 313 µM); MIC [9]: 128 µg/mL (≈ 313 µM)
CCCCCCCCCC(=O)c1c(O)c2cc(Cl)ccc2oc1=O [B003, 6-chloro-3-decanoyl-4-hydroxycoumarin]	–	2 (≈ 5.7 µM)	–	–	–	–	0.25 (≈ 0.713 µM)	256 (≈ 730 µM)	256 (≈ 730 µM)	MIC [1]: 0.5 µg/mL (≈ 1.43 µM); MIC ([3]; MRSA): 2 µg/mL (≈ 5.7 µM); MIC ([4]; 5038STRAIN): 0.5 µg/mL (≈ 1.43 µM); MIC [5]: 0.25 µg/mL (≈ 0.713 µM)
CCCCCCCCCC(=O)c1c(O)c2cc(F)ccc2oc1=O [B004, 3-decanoyl-6-fluoro-4-hydroxycoumarin]	–	1 (≈ 2.99 µM)	–	–	–	–	0.25 (≈ 0.748 µM)	256 (≈ 766 µM)	2 (≈ 5.98 µM)	MIC [1]: 0.25 µg/mL (≈ 0.748 µM); MIC ([3]; MRSA): 1 µg/mL (≈ 2.99 µM); MIC ([4]; 5038STRAIN): 0.5 µg/mL (≈ 1.5 µM); MIC [5]: 0.25 µg/mL (≈ 0.748 µM)
